According to ChEMBL document CHEMBL3399942, “Identification and optimization of pyridazinones as potent and selective c-Met kinase inhibitors” (Bioorg Med Chem Lett, 2015):
Active and inactive are the calls of the source. The calls are words filed in the database; no cut-off is given here.

Legend:
[1] = Clearance in NMRI mouse at 0.2 mg/kg, iv and 0.5 mg/kg, po by LC/MS/MS analysis; assay type: ADME, organism-based; details: in vivo
[2] = Lipophilicity, log D of the compound; assay type: physicochemical; details: octanol/water
[3] = Oral bioavailability in NMRI mouse at 0.5 mg/kg by LC/MS/MS analysis; assay type: ADME, organism-based; details: in vivo
[4] = molecular target: T1, Hepatocyte growth factor receptor (Homo sapiens, UniProt P08581); experiment: Inhibition of GST-His6-tagged recombinant human c-Met kinase domain (956 to 1390) after 60 mins by anoff-chip mobility shift assay
T1 sequence (P08581 whole entry, the tested form may be a part): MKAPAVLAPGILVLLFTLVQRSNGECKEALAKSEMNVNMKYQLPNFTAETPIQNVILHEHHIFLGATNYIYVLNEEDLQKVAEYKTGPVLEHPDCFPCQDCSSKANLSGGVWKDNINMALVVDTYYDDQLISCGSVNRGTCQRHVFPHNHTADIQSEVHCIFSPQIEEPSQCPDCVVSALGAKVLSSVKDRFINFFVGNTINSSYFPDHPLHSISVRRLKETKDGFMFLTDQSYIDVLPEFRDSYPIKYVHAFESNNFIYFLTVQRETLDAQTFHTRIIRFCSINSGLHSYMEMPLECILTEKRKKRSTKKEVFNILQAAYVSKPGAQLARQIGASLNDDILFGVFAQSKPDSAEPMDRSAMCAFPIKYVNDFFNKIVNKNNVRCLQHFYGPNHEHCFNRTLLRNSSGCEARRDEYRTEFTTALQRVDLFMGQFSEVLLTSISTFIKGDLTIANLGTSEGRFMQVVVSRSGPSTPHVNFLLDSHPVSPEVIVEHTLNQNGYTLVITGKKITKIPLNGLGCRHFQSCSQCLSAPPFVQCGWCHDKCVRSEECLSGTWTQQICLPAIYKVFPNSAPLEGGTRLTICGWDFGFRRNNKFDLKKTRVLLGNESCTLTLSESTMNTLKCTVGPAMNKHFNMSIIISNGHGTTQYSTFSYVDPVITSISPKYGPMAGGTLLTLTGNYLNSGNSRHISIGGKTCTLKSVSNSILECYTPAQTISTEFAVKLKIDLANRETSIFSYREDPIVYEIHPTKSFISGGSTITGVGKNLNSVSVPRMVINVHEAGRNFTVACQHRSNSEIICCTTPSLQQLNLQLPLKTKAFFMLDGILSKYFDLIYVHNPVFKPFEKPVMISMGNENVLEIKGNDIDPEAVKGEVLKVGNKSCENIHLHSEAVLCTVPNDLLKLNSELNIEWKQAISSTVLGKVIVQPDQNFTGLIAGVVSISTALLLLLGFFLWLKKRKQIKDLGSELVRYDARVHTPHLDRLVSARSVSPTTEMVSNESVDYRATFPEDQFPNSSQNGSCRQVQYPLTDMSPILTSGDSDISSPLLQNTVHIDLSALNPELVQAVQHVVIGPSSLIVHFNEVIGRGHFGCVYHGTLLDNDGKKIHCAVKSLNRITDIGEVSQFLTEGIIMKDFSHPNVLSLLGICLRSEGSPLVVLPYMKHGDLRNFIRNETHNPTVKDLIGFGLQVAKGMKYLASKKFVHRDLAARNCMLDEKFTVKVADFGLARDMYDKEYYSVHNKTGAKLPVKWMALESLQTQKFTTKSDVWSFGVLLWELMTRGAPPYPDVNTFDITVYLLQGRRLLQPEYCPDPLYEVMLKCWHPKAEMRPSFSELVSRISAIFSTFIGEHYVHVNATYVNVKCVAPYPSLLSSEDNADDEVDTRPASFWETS

Phosphodiesterase 4 [5] = molecular target: T2, Phosphodiesterase 4 (Homo sapiens, UniProt P27815+Q08499+Q07343+Q08493); experiment: Inhibition of PDE4 (unknown origin) at 10 uM; assay type: protein assay
Phosphodiesterase 3 [6] = molecular target: T3, Phosphodiesterase 3 (Homo sapiens, UniProt Q14432+Q13370); experiment: Inhibition of PDE3 (unknown origin) at 10 uM; assay type: protein assay
[7] = molecular target: T1, Hepatocyte growth factor receptor; experiment: Inhibition of c-Met kinase in human A549 cells assessed as inhibition of phosphorylation after 45 mins by electrochemiluminescence assay
[8] = Aqueous solubility of the compound in phosphate buffer at pH 7.4; assay type: physicochemical
[9] = Volume of distribution at steady state in NMRI mouse at 2 mg/kg, iv after 24 hrs by LC/MS/MS analysis; assay type: ADME, organism-based; design: dose 2 mg/kg, route intravenous; details: in vivo, read-out: Vdss
[10] = Fraction unbound in human plasma; assay type: ADME, cell-free
[11] = Oral bioavailability in beagle dog at 5 mg/kg after 48 hrs by LC/MS/MS analysis; assay type: ADME, organism-based, Canis lupus familiaris; details: in vivo
[12] = Volume of distribution at steady state in beagle dog at 2 mg/kg, iv after 48 hrs by LC/MS/MS analysis; assay type: ADME, organism-based, Canis lupus familiaris; design: dose 2 mg/kg, route intravenous; details: in vivo, read-out: Vdss
[13] = Volume of distribution at steady state in cynomolgus monkey at 2 mg/kg, iv after 72 hrs by LC/MS/MS analysis; assay type: ADME, organism-based, Macaca fascicularis; design: dose 2 mg/kg, route intravenous; details: in vivo, read-out: Vdss
[14] = Plasma protein binding in human at 10 uM; assay type: ADME, cell-free; details: read-out: PPB (converted)
[15] = Fraction unbound in Wistar rat plasma; assay type: ADME, cell-free
[16] = Volume of distribution at steady state in Wistar rat at 3 mg/kg, iv after 24 hrs by LC/MS/MS analysis; assay type: ADME, organism-based; design: dose 3 mg/kg, route intravenous; details: in vivo, read-out: Vdss
[17] = Clearance in beagle dog at 2 mg/kg, iv after 48 hrs by LC/MS/MS analysis; assay type: ADME, organism-based, Canis lupus familiaris; design: dose 2 mg/kg, route intravenous; details: in vivo
[18] = Oral bioavailability in Wistar rat at 6 mg/kg after 24 hrs by LC/MS/MS analysis; assay type: ADME, organism-based; details: in vivo
[19] = Half life in NMRI mouse at 2 mg/kg, iv after 24 hrs by LC/MS/MS analysis; assay type: ADME, organism-based; design: dose 2 mg/kg, route intravenous; details: in vivo
[20] = Fraction unbound in beagle dog plasma; assay type: ADME, cell-free, Canis lupus familiaris
[21] = Fraction unbound in NMRI mouse plasma; assay type: ADME, cell-free
[22] = Cmax in beagle dog at 5 mg/kg, po after 48 hrs by LC/MS/MS analysis; assay type: ADME, organism-based, Canis lupus familiaris; design: dose 5 mg/kg, route oral; details: in vivo
[23] = Fraction unbound in cynomolgus monkey plasma; assay type: ADME, cell-free, Macaca fascicularis
[24] = Half life in Wistar rat at 3 mg/kg, iv after 24 hrs by LC/MS/MS analysis; assay type: ADME, organism-based; design: dose 3 mg/kg, route intravenous; details: in vivo
[25] = Toxicity in po dosed CD-1 nude mouse xenografted with human EBC1 cells administered qd for 5 days on and 2 days off up to 32 days; assay type: organism-based; details: in vivo
[26] = Clearance in Wistar rat at 3 mg/kg, iv after 24 hrs by LC/MS/MS analysis; assay type: ADME, organism-based; design: dose 3 mg/kg, route intravenous; details: in vivo
[27] = Cmax in Wistar rat at 6 mg/kg, po after 24 hrs by LC/MS/MS analysis; assay type: ADME, organism-based; design: dose 6 mg/kg, route oral; details: in vivo
[28] = Half life in beagle dog at 2 mg/kg, iv after 48 hrs by LC/MS/MS analysis; assay type: ADME, organism-based, Canis lupus familiaris; design: dose 2 mg/kg, route intravenous; details: in vivo
[29] = Half life in cynomolgus monkey at 2 mg/kg, iv after 72 hrs by LC/MS/MS analysis; assay type: ADME, organism-based, Macaca fascicularis; design: dose 2 mg/kg, route intravenous; details: in vivo
[30] = Cmax in NMRI mouse at 5 mg/kg, po after 24 hrs by LC/MS/MS analysis; assay type: ADME, organism-based; design: dose 5 mg/kg, route oral; details: in vivo
[31] = Clearance in NMRI mouse at 2 mg/kg, iv after 24 hrs by LC/MS/MS analysis; assay type: ADME, organism-based; design: dose 2 mg/kg, route intravenous; details: in vivo
[32] = Oral bioavailability in NMRI mouse at 5 mg/kg after 24 hrs by LC/MS/MS analysis; assay type: ADME, organism-based; details: in vivo
[33] = Clearance in cynomolgus monkey at 2 mg/kg, iv after 72 hrs by LC/MS/MS analysis; assay type: ADME, organism-based, Macaca fascicularis; design: dose 2 mg/kg, route intravenous; details: in vivo
[34] = Cmax in cynomolgus monkey at 5 mg/kg, po after 72 hrs by LC/MS/MS analysis; assay type: ADME, organism-based, Macaca fascicularis; design: dose 5 mg/kg, route oral; details: in vivo
[35] = Oral bioavailability in cynomolgus monkey at 5 mg/kg after 72 hrs by LC/MS/MS analysis; assay type: ADME, organism-based, Macaca fascicularis; details: in vivo
Mus musculus = experiment: Toxicity in CD-1 nude mouse xenografted with human EBC1 cells assessed as body weight loss at 15 mg/kg, po qd administered for 5 days on and 2 days off up to 32 days; assay type: organism-based; design: dose 15 mg/kg, route oral; details: in vivo
EBC-1 = experiment: Antitumor activity against human EBC1 cells xenografted in CD-1 nude mouse assessed as tumor regression at 15 mg/kg, po qd administered for 5 days on and 2 days off up to 32 days; assay type: functional, organism-based; design: dose 15 mg/kg
[36] = Plasma protein binding in human at 0.3 uM; assay type: ADME, cell-free; details: read-out: PPB (converted)
Phosphodiesterase 4 [37] = molecular target: T2, Phosphodiesterase 4; experiment: Inhibition of PDE4 (unknown origin); assay type: protein assay
Phosphodiesterase 3 [38] = molecular target: T3, Phosphodiesterase 3; experiment: Inhibition of PDE3 (unknown origin); assay type: protein assay

CN(C)CCCOc1cnc(-c2cccc(Cn3nc(-c4cccc(C#N)c4)ccc3=O)c2)nc1
clearance [1]: 102 mL/min/kg | logD [2]: 2.4 | bioavailability [3]: 32%

CCN(CC)CCCOC(=O)Nc1cccc(CN2N=C(c3ccc(Cl)cc3)CSC2=O)c1
IC50 [4]: 90 nM | inhibition (Phosphodiesterase 4 [5]): 49% | inhibition (Phosphodiesterase 3 [6]): 1%

CN(C)CCCOC(=O)Nc1cccc(CN2N=C(c3cc(F)cc(F)c3)CSC2=O)c1
clearance [1]: 56.7 mL/min/kg | IC50 [4]: 23 nM | IC50 [7]: 78 nM | bioavailability [3]: 25%

O=C(Nc1cccc(Cn2nc(-c3cc(F)cc(F)c3)ccc2=O)c1)OCCCN1CCOCC1
inhibition (Phosphodiesterase 4 [5]): 19% | inhibition (Phosphodiesterase 3 [6]): 8%

CN(C)CCCOC(=O)Nc1cccc(Cn2nc(-c3ccc(F)cc3)ccc2=O)c1
inhibition (Phosphodiesterase 4 [5]): 8% | inhibition (Phosphodiesterase 3 [6]): 28%

CN(C)CCCOc1cnc(-c2cccc(Cn3nc(-c4cc(F)cc(F)c4)ccc3=O)c2)nc1
logD [2]: 3

Cc1cnc(-c2cccc(Cn3nc(-c4cc(F)cc(F)c4)ccc3=O)c2)nc1
solubility [8]: < 1 µg/mL

CN(C)CCCOc1cnc(-c2cccc(Cn3nc(-c4cccnc4)ccc3=O)c2)nc1
logD [2]: 1.4

CN(C)CCCOC(=O)Nc1cccc(Cn2nc(-c3cc(F)cc(F)c3)ccc2=O)c1
clearance [1]: 51.7 mL/min/kg | bioavailability [3]: 30%

Cc1cnc(-c2cccc(Cn3nc(-c4cc(F)cc(F)c4)ccc3=O)c2)[nH]1
IC50 [4]: 5300 nM

Cc1nc(-c2cccc(Cn3nc(-c4cc(F)cc(F)c4)ccc3=O)c2)no1
IC50 [4]: 800 nM

N#Cc1cccc(-c2ccc(=O)n(Cc3cccc(-c4ncc(OCCN5CCOCC5)cn4)c3)n2)c1
clearance [1]: 35 mL/min/kg | IC50 [4]: 1 nM | IC50 [7]: 34 nM | bioavailability [3]: 35%

CN1CCC(COc2cnc(-c3cccc(Cn4nc(-c5cccc(C#N)c5)ccc4=O)c3)nc2)CC1 [TEPOTINIB]
Vd [9]: 8.2 L/kg | fraction unbound [10]: 0.023 | bioavailability [11]: 22% | clearance [1]: 60 mL/min/kg | Vd [12]: 26 L/kg | Vd [13]: 9.6 L/kg | fraction unbound at 10 µM [14]: 0.034 | fraction unbound [15]: 0.041 | Vd [16]: 20 L/kg | clearance [17]: 55 mL/min/kg | bioavailability [18]: 55% | half-life [19]: 2.1 h | fraction unbound [20]: 0.064 | fraction unbound [21]: 0.028 | Cmax [22]: 22.4 ng/mL | fraction unbound [23]: 0.052 | half-life [24]: 3.2 h | MTD [25]: 15 mg/kg | clearance [26]: 78.3 mL/min/kg | Cmax [27]: 66 ng/mL | half-life [28]: 7.6 h | half-life [29]: 10 h | Cmax [30]: 62.2 ng/mL | bioavailability [3]: 34% | clearance [31]: 66.7 mL/min/kg | bioavailability [32]: 41% | clearance [33]: 12.2 mL/min/kg | Cmax [34]: 55.5 ng/mL | bioavailability [35]: 25% | Activity (Mus musculus): Non-toxic | Activity (EBC-1): Active | fraction unbound at 0.3 µM [36]: 0.016

CCN(CC)CCCOC(=O)Nc1cccc(CN2N=C(c3ccc(OC)c(OC)c3)CSC2=O)c1
clearance [1]: 100 mL/min/kg | IC50 [4]: 400 nM | IC50 [7]: 1100 nM | bioavailability [3]: < 5% | IC50 (Phosphodiesterase 4 [37]): 63 nM | IC50 (Phosphodiesterase 3 [38]): 1500 nM

COc1cccc(-c2ccc(=O)n(Cc3cccc(-c4ncc(OCCCN(C)C)cn4)c3)n2)c1
logD [2]: 2.6

CN(C)CCCOc1cnc(-c2cccc(Cn3nc(-c4cccc(F)c4)ccc3=O)c2)nc1
IC50 [4]: 6.5 nM | logD [2]: 2.6 | IC50 [7]: 140 nM
